These results are taken from publication PMC12013366, “In vitro evaluation of the immunogenic potential of gramicidin S and its photocontrolled analogues” (RSC Medicinal Chemistry, 2025).

Non-standard residues stand in square brackets, D forms with d. Residues, ends and D or L forms follow the SMILES beside them. Orn = NCCC[C@H](N)C(=O)O

The series can be described thus: Cytotoxicity, three-dimensional (spheroid) assay. In kind it is cell-based. The conditions noted are these: human, HEK-293 spheroids, calcein-AM/PI/Hoechst 33342 confocal imaging, Table S3 (with LMB033), ± SEM, n=5, read-out: IC50, cytotoxic activity, three-dimensional (spheroid) assay. The text has this:
For the experiments with the three-dimensional (3D) cultures, we used a 384-well plate format and applied the protocol introduced by Sirenko et al.,[35] with a few modifications. First, we used the ultra-low adhesion plates to ensure reproducible spheroid formation. Second, we decided to co-stain the cells with calcein-AM to obtain more information on the processes occurring in spheroids upon the addition of cytolytic peptides. Calcein-AM stains metabolically active cells and helps to identify the fraction of necrotic cells that is essential for the accurate determination of the IC50 values (Fig. 3). Three time points of incubation of spheroids with the peptides (10 min, 24 h and 72 h) were chosen for the experiments. The IC50 values and the closed/open isomer activity ratios (Table 2) were calculated, as in the monolayer cell culture experiments.
Essential experimental details have been previously published by us.[79]
The cells were maintained identically to a 2D cell culture protocol. After counting, the cells were seeded in 50 μL of medium in an ultralow attachment U-bottom black-wall 384-well plate (3830, Corning). The seeding density was chosen to obtain spheroids after 48 h of incubation that are compact enough to fit into 20× objective field of view (<800–1000 μm in diameter) after incubation with compounds. We seeded 2000 cells per well for 4T1 and 1000 cells per well for HEK-293, HeLa, HepG2, LLC and MDA-MB-231. After seeding, the plate was centrifuged at 40 g for 30 s and additionally shaken at 250 rpm for 1 min to shake all the cells off the walls of a well. After 48 h, the compounds were dispensed in 20 μL of medium (500, 100, 50, 5 and 1 μM for closed peptide photoforms; 100, 50, 10, 1 and 0.5 μM for open photoforms and GS). At 10 min, 24 h and 72 h post addition of compounds, the staining solution consisting of 112.5 μM of Hoechst 33342, 4.5 μM of calcein-AM (C1430, Thermo Fisher), 13.5 μM of propidium iodide and 10% of FBS in DPBS was added in 20 μL for 2 h. The fluorescent imaging was conducted in the confocal mode with a 20× objective lens and z-stack of 12–15 images with a 10 μm step. The collected data were processed using INCarta 1.13 and analyzed using GraphPad Prism 10.

A word on the IC50: it is the midpoint of a concentration-inhibition curve. Regarding `CC(C)C[C@@H]1NC(=O)[C@H](CCCN)NC(=O)[C@H](C(C)C)NC(=O)[C@@H]2CCCN2C(=O)[C@@H](Cc2ccccc2)NC(=O)[C@H](CC(C)C)NC(=O)[C@H](CCCN)NC(=O)[C@H](C(C)C)NC(=O)[C@@H]2CCCN2C(=O)[C@@H](Cc2ccccc2)NC1=O` [Gramicidin S, gramicidin S] (cyclo(V[Orn]L[dF]PV[Orn]L[dF]P)), where the note is “10 mins incubation”, the IC50 at 10 min was 14.3 ± 11.6 µM. Also, where the note is “24 hrs incubation”, the IC50 at 24 h is 12.9 ± 1.1 µM. Also, under “72 hrs incubation”, the IC50 at 72 h is 9 ± 1.1 µM.
